The text below walks through data of article PMC2361176, “Inhibitory effects of retinoic acid metabolism blocking agents (RAMBAs) on the growth of human prostate cancer cells and LNCaP prostate tumour xenografts in SCID mice” (British Journal of Cancer, 2006).

Entries after “also recorded” stand apart in the source; their conditions may differ.

The subject of data set [1] is Bad. In words: Western-blot analysis of Bad in LNCaP cells. The format is cell-based, human. Conditions: 5 and 10 μM, P<0.05. The protocol:
The Western-blot protocol described for cytokeratins 8/18 was followed with some exceptions. Cell lysates (50 μg) were separated on a 15% SDS–PAGE gel. All washing was performed using TBS containing 1% Tween 20 (TBS-T). Blocking was performed using 5% milk in TBS-T. Incubations were performed using rabbit monoclonal IgG antibody to Bad and Bcl-2 (1 : 1000), as well as horseradish peroxidase-linked anti-rabbit IgG antibodies (1 : 2000) (Cell Signaling Technology, Beverly, MA, USA).

Data set [2] has as its system LNCaP cells. In words: Cell-cycle analysis (propidium iodide, FACScan). Conditions: 5 μM, 6 days; for Sub-G1 (%): apoptotic cells, control 9.02; for G2/M (%): control 2.20; for S (%): control 15.01; for G0/G1 (%): control 82.78. The format is cell-based, human. The protocol:
LNCaP cells were treated with 1 or 5 μM of ATRA or each of the RAMBAs for 6 days. The cells were trypsinised and washed twice in PBS (Life Technologies, Grand Island, NY, USA). The cells were fixed by adding 70% ethanol and stored at −20°C until staining. The cells were washed twice in PBS. A volume of 1 ml of a propidium iodide (PI) solution (50 μg ml^−1 in PBS) and 500 μl of an RNase stock solution (100 μg ml^−1) were added to the cells and incubated for 1 h in the dark. Approximately 10^4 stained cells were then analysed by flow cytometry (Becton Dickenson FACScan, Franklin Lakes, NJ, USA). The percentages of cells in G0/G1, S, and G2/M phases of the cell cycle as well as percentage of apoptotic cells (sub G0/G1) were determined using MODFIT LT software (Verity Software House, San Jose, CA, USA). The percentages of cells in G0/G1, S, and G2/M phases of the cell cycle were obtained from diploid cells in the sample and the percentage of apoptotic cells (sub G0/G1) was obtained from total cells minus the debris.

For data set [3], the system named is LNCaP tumour xenographs. Kind of data set: In vivo antitumour study, LNCaP human prostate carcinoma xenograft. More on the design: species or system male SCID mice. Conditions: 0.033 mmol kg−1 once daily; for reduction in tumour growth compared to control: 6 weeks, P<0.05. The protocol: (§1) All animal studies were performed according to the guidelines and approval of the Animal Care Committee of the University of Maryland School of Medicine, and were consistent with United Kingdom Coordinating Committee on Cancer Research guidelines for the welfare of animals in experimental neoplasia. The procedure was modified from [Grigoryev et al (1999)]. Briefly, LNCaP cells were trypsinised, counted, and suspended in Matrigel (2 × 10^7 cells ml^−1) (Fisher Scientific International, Inc., Hampton, NH, USA). Male SCID mice of 4–6 weeks of age were obtained from the National Cancer Institute (Frederick, MD, USA). Each mouse was inoculated s.c. with 0.1 ml of the cell suspension at two sites in the flank. The size of the tumours was determined by measuring the tumour volumes using calipers. Tumour volumes were calculated using the formula V=4/3 × π × r1^2 × r2(r1<r2). The tumours were allowed to develop to approximately 100 mm^3 before treatment. […] Tumour volumes were measured twice weekly and weights of animals were taken weekly after the initiation of treatment. The mice were subjected to 6 weeks of treatment. The mice were then killed and the tumours were excised, weighed, and stored at −80°C until analysis. Additionally, the plasma was collected with 50 IU of heparin and stored at −80°C until analysis.
Background: In xenograft studies the graft and the host belong to different species.

The nature of data set [4]: Tolerability and body weight in the LNCaP xenograft study. Particulars: 0.033 mmol kg−1 once daily. Format: in vivo. Here is the method: as §1
Data set [5] relates to MCF-7 human breast cancer model. More on the design: method as in Patel et al, 2004, 2006. Conditions: ref Patel et al, 2004, 2006; cited from earlier work.
The target in data set [6] is T1, CYP26 (Homo sapiens, UniProt O43174).
T1 construct: LNCaP cells were incubated with 1 μM ATRA for 24 h to induce the CYP26 enzyme; endogenous in cells; host or cells: LNCaP human prostate cancer cells, pre-treated with 1 μM ATRA
T1 sequence (O43174 1-497): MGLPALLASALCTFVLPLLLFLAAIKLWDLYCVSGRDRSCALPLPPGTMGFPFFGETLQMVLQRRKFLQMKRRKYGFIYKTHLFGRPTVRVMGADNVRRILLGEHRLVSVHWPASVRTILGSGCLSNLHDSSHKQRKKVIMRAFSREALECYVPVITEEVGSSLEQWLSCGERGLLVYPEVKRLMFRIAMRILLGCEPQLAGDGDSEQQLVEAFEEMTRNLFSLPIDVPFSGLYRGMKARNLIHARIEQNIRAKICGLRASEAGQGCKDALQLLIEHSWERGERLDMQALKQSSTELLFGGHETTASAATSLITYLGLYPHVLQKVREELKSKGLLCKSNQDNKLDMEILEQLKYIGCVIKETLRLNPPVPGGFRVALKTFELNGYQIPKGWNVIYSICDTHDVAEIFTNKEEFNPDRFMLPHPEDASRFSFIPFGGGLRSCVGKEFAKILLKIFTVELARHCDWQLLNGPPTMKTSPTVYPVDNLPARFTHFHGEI
Kind of data set: Cellular CYP26 assay: inhibition of ATRA metabolism in intact LNCaP cells. Format: cell-based. Particulars: intact LNCaP cells pretreated with 1 μM ATRA; [11,12-3H]-ATRA substrate; HPLC. Here is the method: Following ATRA treatment, the LNCaP cells were incubated with 0.1 or 0.8 μM [11,12-^3H]-ATRA (PerkinElmer Life and Analytical Sciences, Inc., Boston, MA, USA) for 5 h. Following the 5 h incubation, the medium was collected and the cells were trypsinised and collected.

For data set [7], the target named is T1, CYP26. In words: Cellular microsomal CYP26 assay (ATRA metabolism of microsomes prepared from T47D cells). The format is biochemical.
In data set [8] the test system is T47D cells. More on the design: method as in Patel et al, 2004. Particulars: cellular assay; ref Patel et al, 2004; read-out: IC50, inhibition of ATRA metabolism in T47D cells; cited from earlier work.

With `CC1=C(/C=C/C(C)=C/C=C/C(C)=C/C(=O)O)C(C)(C)CCC1` [ATRA, all-trans-retinoic acid, reference compound], the “Bad expression compared with control” value in data set [1] is reported as “significant increase”. In addition, in data set [2], the “Sub-G1 (%)” value was determined as 13.64%, the “G2/M (%)” value was found to be 12.42%, the “S (%)” value was determined as 9.84% and the “G0/G1 (%)” value is listed as 77.74%. Also, in data set [3], the “tumour growth compared to vehicle control (in words)” value is “statistically significantly LNCaP tumour growth inhibition” and the “reduction in tumour growth compared to control” value (from here on “reduction in tumour growth”) came out at 75%. Also, in data set [4] (data not shown), the “reduction of body weights compared to control” value is approximately 25%.
For `CC1=C(/C=C/C(C)=C/C=C/C(C)=C/C(=O)O)C(C)(C)CCC1n1ccnc1` (centres unmarked) [VN/14-1], in data set [5], the antitumour efficacy entry is given as “excellent antitumour efficacy”. Further, in data set [2], the “Sub-G1 (%)” value amounted to 17.88%, the “G2/M (%)” value came out at 10.15%, the “S (%)” value amounted to 7.26% and the “G0/G1 (%)” value was 82.59%. Also, the “tumour growth compared to vehicle control (in words)” value in data set [3] is reported as “ineffective; also recorded: not significantly different”. The IC50 (usually the concentration that inhibits the measured activity by half) in data set [6] is 6.5 ± 1.5 nM.
As to `CC1=C(/C=C/C(C)=C/C=C/C(C)=C/C(=O)n2ccnc2)C(C)(C)CCC1n1ccnc1` (centres unmarked) [VN/50-1], in data set [7] (microsomal vs cellular IC50), the “fold higher potency in microsomes compared to the cellular IC50 value” is approximately 13 fold. In addition, the IC50 in data set [7] (microsomes, read-out: IC50, inhibition of ATRA metabolism of microsomes prepared from T47D cells previously exposed to ATRA) was determined as 7 ± 1.2 nM. Besides, in data set [2], the “Sub-G1 (%)” value is listed as 17.67%, the “G2/M (%)” value worked out at 7.30%, the “S (%)” value is given as 11.38% and the “G0/G1 (%)” value is given as 81.33%. The IC50 in data set [8] was 10 nM. Moreover, in data set [6], the IC50 worked out at 90 ± 10 nM. Also, in data set [4], the “toxicity to the mice” value is “very toxic; also recorded: toxic”.
In the case of `CC1=C(/C=C/C(C)=C/C=C/C(C)=C/C(=O)Nc2ccc(O)cc2)C(C)(C)CCC1n1ccnc1` (centres unmarked) [VN/66-1], in data set [2], the “Sub-G1 (%)” value came to 14.49%, the “G2/M (%)” value was found to be 5.07%, the “S (%)” value was 11.14% and the “G0/G1 (%)” value is given as 83.80%. For the same compound, in data set [3], the “tumour growth compared to vehicle control (in words)” value was “statistically significantly LNCaP tumour growth inhibition” and the “reduction in tumour growth” value is on record as 44%. In addition, the IC50 in data set [6] came out at 62.5 ± 12.5 nM.
For `CC1=C(/C=C/C(C)=C/C=C/C(C)=C\C(=O)Nc2ccc(O)cc2)C(C)(C)CCC1n1ccnc1` (centres unmarked) [VN/69-1], in data set [2], the “Sub-G1 (%)” value came out at 13.39%, the “G2/M (%)” value worked out at 6.20%, the “S (%)” value came to 11.14% and the “G0/G1 (%)” value was 82.66%. Also, in data set [3], the “tumour growth compared to vehicle control (in words)” value was “statistically significantly LNCaP tumour growth inhibition” and the “reduction in tumour growth” value is listed as 47%. The IC50 in data set [6] is 90 ± 12.5 nM.
